pIC50: −log10 of the molar value.
Columns and labels:
DOHH2 cells = test: Cell proliferation assay (MTS), DOHH2 cells, 120 h; format: cell-based; details: Homo sapiens, DOHH-2, 120 h
Outline: (§1)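 Cells in RPMI-1640 with 10% FBS were seeded at 5000/well, left overnight at 37° C., 5% CO2, then exposed to compound at 10000 down to 1.5 nM (nine concentrations) for 72 h (RS4;11) or 120 h (DOHH2). Viability was read by MTS, 2 h, absorbance at 490/650 nm; IC50 calculated.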

RS4;11 cells = test: Cell proliferation assay (MTS), RS4;11 cells, 72 h; format: cell-based; details: Homo sapiens, RS4-11, 72 h
Outline: as §1

| pIC50 (RS4;11 cells) | SMILES | pIC50 (DOHH2 cells) |
| --- | --- | --- |
| 7.11 | CC1(C)CCC(CN2CCN(c3ccc(C(=O)NS(=O)(=O)c4cc5c(c([N+](=O)[O-])c4)N[C@@H](Cc4ccccc4F)CO5)c(Oc4cnc5[nH]ccc5c4)c3)CC2)=C(c2ccc(Cl)cc2)C1 [Example 2-189, (S)-2-((1H-pyrrolo[2,3-b]pyridin-5-yl)oxy)-4-(4-((4′-chloro-5,5-dimethyl-3,4,5,6-tetra-hydro-[1,1′-biphenyl]-2-yl)methyl)piperazin-1-yl)-N-((3-(2-fluorobenzyl)-5-nitro-3,4-dihydro-2H-benzo[b][1,4]oxazin-7-yl)sulfo-nyl)benzamide] | 6.83 |
| 8.10 | CC1(C)CCC(CN2CCN(c3ccc(C(=O)NS(=O)(=O)c4cc5c(c([N+](=O)[O-])c4)N[C@@H](Cc4ccc(F)cc4)CO5)c(Oc4cnc5[nH]ccc5c4)c3)CC2)=C(c2ccc(Cl)cc2)C1 [Example 2-190, (S)-2-((1H-pyrrolo[2,3-b]pyridin-5-yl)oxy)-4-(4-((4′-chloro-5,5-dimethyl-3,4,5,6-tetra-hydro-[1,1′-biphenyl]-2-yl)methyl)piperazin-1-yl)-N-((3-(4-fluorobenzyl)-5-nitro-3,4-dihydro-2H-benzo[b][1,4]oxazin-7-yl)sulfo-nyl)benzamide] | 7.60 |
| 8.30 | CC1(C)CCC(CN2CCN(c3ccc(C(=O)NS(=O)(=O)c4cc5c(c([N+](=O)[O-])c4)N[C@@H](Cc4ccc(S(C)(=O)=O)cn4)CO5)c(Oc4cnc5[nH]ccc5c4)c3)CC2)=C(c2ccc(Cl)cc2)C1 [Example 2-192, (S)-2-((1H-pyrrolo[2,3-b]pyridin-5-yl)oxy)-4-(4-((4′-chloro-5,5-dimethyl-3,4,5,6-tetra-hydro-[1,1′-biphenyl]-2-yl)methyl)piperazin-1-yl)-N-((3-((5-(methylsulfonyl)pyridin-2-yl)methyl)-5-nitro-3,4-dihydro-2H-benzo [b][1,4]oxazin-7-yl)sulfonyl)benzamide] | 6.84 |
| 9.00 | CN1CCC(C[C@H]2COc3cc(S(=O)(=O)NC(=O)c4ccc(N5CCN(CC6=C(c7ccc(Cl)cc7)CC(C)(C)CC6)CC5)cc4Oc4cnc5[nH]ccc5c4)cc([N+](=O)[O-])c3N2)CC1 [Example 2-193, (S)-2-((1H-pyrrolo[2,3-b]pyridin-5-yl)oxy)-4-(4-((4′-chloro-5,5-dimethyl-3,4,5,6-tetra-hydro-[1,1′-biphenyl]-2-yl)methyl)piperazin-1-yl)-N-((3-((1-methylpiperidin-4-yl)meth-yl)-5-nitro-3,4-dihydro-2H-benzo[b][1,4]oxazin-7-yl)sulfonyl)benzamide] | 7.55 |
| 8.30 | CC(=O)N1CCC(C[C@H]2COc3cc(S(=O)(=O)NC(=O)c4ccc(N5CCN(CC6=C(c7ccc(Cl)cc7)CC(C)(C)CC6)CC5)cc4Oc4cnc5[nH]ccc5c4)cc([N+](=O)[O-])c3N2)CC1 [Example 2-194, (S)-2-((1H-pyrrolo[2,3-b]pyridin-5-yl)oxy)-N-((3-((1-acetylpiperidin-4-yl)methyl)-5-nitro-3,4-dihydro-2H-benzo[b][1,4]oxazin-7-yl)sulfonyl)-4-(4-((4′-chloro-5,5-dimethyl-3,4,5,6-tetrahydro-[1,1′-biphenyl]-2-yl)meth-yl)piperazin-1-yl)benzamide] | 7.13 |
| 8.40 | COC(=O)N1CCC(C[C@H]2COc3cc(S(=O)(=O)NC(=O)c4ccc(N5CCN(CC6=C(c7ccc(Cl)cc7)CC(C)(C)CC6)CC5)cc4Oc4cnc5[nH]ccc5c4)cc([N+](=O)[O-])c3N2)CC1 [Example 2-195, methyl (S)-4-((7-(N-(2-((1H-pyrrolo[2,3-b]pyridin-5-yl)oxy)-4-(4-((4′-chloro-5,5-dimethyl-3,4,5,6-tetrahydro-[1,1′-biphenyl]-2-yl)methyl)piperazin-1-yl)benzoyl)sulfamoyl)-5-nitro-3,4-dihydro-2H-benzo[b][1,4]oxazin-3-yl)methyl)piperidine-1-carboxylate] | 6.86 |

Reference: patent US11091478B2 (Fochon Pharmaceuticals, Ltd., priority 2017, dated 2021)
